# The source made the active and inactive calls. The calls are words filed in the database; no cut-off is given here.
# Assays:
# [1] = molecular target: Aurora kinase B (Homo sapiens) (UniProt Q96GD4); assay: Disruption of AURKB localization in human RPE-MYC transfected with GFP-H2B assessed as minimal effective concentration that induces mitotic arrest, polyploidy, cell death and cell number reduction by MIPS assay; format: cell-based
# [2] = Dose normalized AUC (0 to 6 hrs) in BALB/c mouse at 50 mg/kg, po compound formulated in PEG300 and administered as single dose by LC-MS/MS analysis; format: ADME, organism-based; settings: in vivo
# [3] = molecular target: Aurora kinase B (Homo sapiens) (UniProt Q96GD4); assay: Disruption of AURKB localization in human RPE-MYC cells transfected with BCL2 assessed as loss of localization of MKLP1 at the spindle-midzone by immunofluorescence staining based analysis; format: cell-based
# [4] = molecular target: Aurora kinase B (Homo sapiens) (UniProt Q96GD4); assay: Inhibition of Aurora kinase B in human RPE-MYC cells transfected with BCL2 assessed as inhibition of histone H3 phosphorylation at Ser10 residue at MEC for polyploidy measured after 6 hrs by immunofluorescence staining based analysis; format: cell-based
# [5] = molecular target: Aurora kinase B (Homo sapiens) (UniProt Q96GD4); assay: Disruption of AURKB localization in human RPE-MYC cells transfected with BCL2 assessed as loss of localization of PLK1 at the spindle-midzone by immunofluorescence staining based analysis; format: cell-based
# [6] = molecular target: Aurora kinase B (Homo sapiens) (UniProt Q96GD4); assay: Disruption of AURKB localization in human RPE-MYC cells transfected with BCL2 assessed as loss of localization of microtubules at the spindle-midzone by immunofluorescence staining based analysis; format: cell-based
# [7] = molecular target: Aurora kinase B (Homo sapiens) (UniProt Q96GD4); assay: Disruption of AURKB localization in human RPE-MYC cells transfected with BCL2 assessed as mislocalization of AURKB at the spindle zone in anaphase cells by immunofluorescence staining based analysis; format: cell-based
# [8] = Cmax in BALB/c mouse at 50 mg/kg, po compound formulated in PEG300 and administered as single dose by LC-MS/MS analysis; format: ADME, organism-based; parameters: dose 50 mg/kg, route po; settings: in vivo
# [9] = molecular target: Aurora kinase B (Homo sapiens) (UniProt Q96GD4); assay: Inhibition of Aurora kinase B in human RPE-MYC cells transfected with BCL2 assessed as inhibition of histone H3 phosphorylation at Ser10 residue at highest concentration measured after 6 hrs by immunofluorescence staining based analysis; format: cell-based
# [10] = molecular target: Aurora kinase B (Homo sapiens) (UniProt Q96GD4); assay: Inhibition of Aurora kinase B (unknown origin)
# NCI-H23 [11] = assay: Antitumor activity against human NCI-H23 cells xenografted in BALB/c mouse assessed as reduction in cellular density in tumor at 50 mg/kg, po bid for 7 days by Hematoxylin and Eosin staining based analysis; format: functional, organism-based; settings: time 7.0 day
# [12] = molecular target: Aurora kinase B (Homo sapiens) (UniProt Q96GD4); assay: Disruption of AURKB localization in human RPE-MYC cells transfected with BCL2 assessed as loss of localization of PLK1 at the spindle-midzone at 40 nM measured after 6 hrs by immunofluorescence staining based analysis; format: cell-based
# [13] = tested on: Phosphatidylinositol 4,5-bisphosphate 3-kinase catalytic subunit alpha isoform (Homo sapiens), P42336 [E545K]; assay: Inhibition of PI3KCA E545K mutant (unknown origin)
# [14] = molecular target: Aurora kinase B (Homo sapiens) (UniProt Q96GD4); assay: Disruption of AURKB localization in human RPE-MYC cells transfected with BCL2 assessed as localization of AURKB on kinetochore at 40 nM measured after 6 hrs by immunofluorescence staining based analysis; format: cell-based
# [15] = molecular target: T1, Aurora kinase A (Homo sapiens) (UniProt O14965); assay: Inhibition of Aurora kinase A (unknown origin)
# T1 sequence (whole entry): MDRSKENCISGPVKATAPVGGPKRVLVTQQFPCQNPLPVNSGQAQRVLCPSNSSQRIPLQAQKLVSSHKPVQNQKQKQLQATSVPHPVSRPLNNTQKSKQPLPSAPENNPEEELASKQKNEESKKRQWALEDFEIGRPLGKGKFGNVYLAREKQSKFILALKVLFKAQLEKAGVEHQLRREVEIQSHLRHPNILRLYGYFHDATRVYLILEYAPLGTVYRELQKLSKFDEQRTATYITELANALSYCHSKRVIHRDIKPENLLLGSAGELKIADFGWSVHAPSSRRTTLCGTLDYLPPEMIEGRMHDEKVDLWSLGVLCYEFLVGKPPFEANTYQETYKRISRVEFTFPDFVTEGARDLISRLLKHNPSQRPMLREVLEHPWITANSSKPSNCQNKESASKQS
# Mus musculus [16] = assay: Induction of apoptosis in BALB/c mouse xenografted with human NCI-H23 cells assessed as increase in caspase-3 activation in tumor at 50 mg/kg, po bid for 7 days by immunohistochemical staining based analysis; format: functional, organism-based; settings: time 7.0 day
# [17] = molecular target: Aurora kinase B (Homo sapiens) (UniProt Q96GD4); assay: Disruption of AURKB localization in human RPE-MYC cells transfected with BCL2 assessed as loss of localization of MKLP1 at the spindle-midzone at 40 nM measured after 6 hrs by immunofluorescence staining based analysis; format: cell-based
# [18] = molecular target: Aurora kinase B (Homo sapiens) (UniProt Q96GD4); assay: Disruption of AURKB localization in human RPE-MYC cells transfected with BCL2 assessed as localization of PLK1 at spindle poles at 40 nM measured after 6 hrs by immunofluorescence staining based analysis; format: cell-based
# Mus musculus [19] = assay: Induction of mitotic arrest in BALB/c mouse xenografted with human NCI-H23 cells assessed as increase in mitotic index in tumor at 50 mg/kg, po bid for 7 days by immunohistochemical staining based analysis; format: functional, organism-based; settings: time 7.0 day
# [20] = molecular target: Aurora kinase B (Homo sapiens) (UniProt Q96GD4); assay: Disruption of AURKB localization in human RPE-MYC cells transfected with BCL2 assessed as localization of PLK1 at mitotic centrosomes at 40 nM measured after 6 hrs by immunofluorescence staining based analysis; format: cell-based
# [21] = molecular target: Aurora kinase B (Homo sapiens) (UniProt Q96GD4); assay: Inhibition of Aurora kinase B in human RPE-MYC cells transfected with BCL2 assessed as inhibition of histone H3 phosphorylation at Ser10 residue at 40 nM measured after 6 hrs by immunofluorescence staining based analysis; format: cell-based
# [22] = molecular target: Aurora kinase B (Homo sapiens) (UniProt Q96GD4); assay: Disruption of AURKB localization in human RPE-MYC cells transfected with BCL2 assessed as mislocalization of AURKB at the spindle zone in anaphase cells at 40 nM measured after 6 hrs by immunofluorescence staining based analysis; format: cell-based
# [23] = molecular target: Aurora kinase B (Homo sapiens) (UniProt Q96GD4); assay: Disruption of AURKB localization in human RPE-MYC cells transfected with BCL2 assessed as loss of localization of microtubules at the spindle-midzone at 40 nM measured after 6 hrs by immunofluorescence staining based analysis; format: cell-based
# NCI-H23 [24] = assay: Antitumor activity against human NCI-H23 cells xenografted in BALB/c mouse assessed as suppression of tumor growth at 50 mg/kg, po bid for 7 days; format: functional, organism-based; settings: time 7.0 day
# [25] = molecular target: Aurora kinase B (Homo sapiens) (UniProt Q96GD4); assay: Inhibition of Aurora kinase B in human RPE-MYC cells transfected with BCL2 assessed as inhibition of histone H3 phosphorylation at Ser10 residue by immunofluorescence staining based analysis; format: cell-based
# [26] = molecular target: T1, Aurora kinase A (Homo sapiens); assay: Inhibition of Aurora kinase A in human RPE-MYC cells transfected with BCL2 assessed as inhibition of protein autophosphorylation at Thr288 residue by immunofluorescence staining based analysis; format: cell-based
# [27] = molecular target: Aurora kinase B (Homo sapiens) (UniProt Q96GD4); assay: Inhibition of Aurora kinase B in human RPE-MYC cells transfected with BCL2 assessed as inhibition of histone H3 phosphorylation at Ser10 residue at 200 nM measured after 6 hrs by immunofluorescence staining based analysis; format: cell-based
# [28] = molecular target: Epithelial discoidin domain-containing receptor 1 (Homo sapiens) (UniProt Q08345); assay: Inhibition of DDR1 (unknown origin)
# Chain of Epithelial discoidin domain-containing receptor 1 (Homo sapiens) (Q08345 whole entry, the tested form may be a part): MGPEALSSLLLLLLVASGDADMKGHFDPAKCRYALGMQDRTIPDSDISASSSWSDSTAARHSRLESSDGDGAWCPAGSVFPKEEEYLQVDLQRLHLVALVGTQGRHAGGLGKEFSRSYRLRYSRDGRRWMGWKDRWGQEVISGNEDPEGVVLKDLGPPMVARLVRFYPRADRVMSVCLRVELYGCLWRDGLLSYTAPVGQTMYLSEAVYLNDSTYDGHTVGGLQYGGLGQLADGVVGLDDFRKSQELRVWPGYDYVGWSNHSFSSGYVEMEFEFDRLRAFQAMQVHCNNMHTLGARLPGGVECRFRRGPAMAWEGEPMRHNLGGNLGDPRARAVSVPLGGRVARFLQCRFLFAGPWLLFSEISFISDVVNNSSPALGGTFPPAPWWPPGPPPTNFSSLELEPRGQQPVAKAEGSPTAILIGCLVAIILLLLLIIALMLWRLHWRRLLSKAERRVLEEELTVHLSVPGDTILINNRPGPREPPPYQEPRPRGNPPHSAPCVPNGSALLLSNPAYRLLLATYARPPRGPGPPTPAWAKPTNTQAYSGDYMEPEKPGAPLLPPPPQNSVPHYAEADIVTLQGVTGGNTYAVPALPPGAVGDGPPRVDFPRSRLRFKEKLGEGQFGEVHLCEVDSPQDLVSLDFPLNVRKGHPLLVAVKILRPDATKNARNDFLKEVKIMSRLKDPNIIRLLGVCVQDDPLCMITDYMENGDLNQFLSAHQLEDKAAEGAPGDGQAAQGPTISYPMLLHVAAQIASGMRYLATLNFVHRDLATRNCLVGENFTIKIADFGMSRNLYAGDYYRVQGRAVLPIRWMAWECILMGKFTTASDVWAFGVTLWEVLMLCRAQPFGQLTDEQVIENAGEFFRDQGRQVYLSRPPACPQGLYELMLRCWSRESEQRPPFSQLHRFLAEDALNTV
# Chain of Aurora kinase B (Homo sapiens) (Q96GD4 whole entry): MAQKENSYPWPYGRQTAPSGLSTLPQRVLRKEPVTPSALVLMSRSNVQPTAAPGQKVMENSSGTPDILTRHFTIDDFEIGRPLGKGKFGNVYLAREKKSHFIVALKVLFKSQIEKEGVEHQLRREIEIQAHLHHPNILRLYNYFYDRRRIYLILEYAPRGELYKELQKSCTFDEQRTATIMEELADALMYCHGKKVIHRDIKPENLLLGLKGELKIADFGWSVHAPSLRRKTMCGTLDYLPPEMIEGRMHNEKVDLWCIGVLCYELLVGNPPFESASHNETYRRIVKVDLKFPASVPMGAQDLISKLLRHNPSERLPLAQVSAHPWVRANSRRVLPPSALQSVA
# Chain of Phosphatidylinositol 4,5-bisphosphate 3-kinase catalytic subunit alpha isoform (Homo sapiens), P42336 [E545K] (P42336 whole entry E545K, canonical isoform): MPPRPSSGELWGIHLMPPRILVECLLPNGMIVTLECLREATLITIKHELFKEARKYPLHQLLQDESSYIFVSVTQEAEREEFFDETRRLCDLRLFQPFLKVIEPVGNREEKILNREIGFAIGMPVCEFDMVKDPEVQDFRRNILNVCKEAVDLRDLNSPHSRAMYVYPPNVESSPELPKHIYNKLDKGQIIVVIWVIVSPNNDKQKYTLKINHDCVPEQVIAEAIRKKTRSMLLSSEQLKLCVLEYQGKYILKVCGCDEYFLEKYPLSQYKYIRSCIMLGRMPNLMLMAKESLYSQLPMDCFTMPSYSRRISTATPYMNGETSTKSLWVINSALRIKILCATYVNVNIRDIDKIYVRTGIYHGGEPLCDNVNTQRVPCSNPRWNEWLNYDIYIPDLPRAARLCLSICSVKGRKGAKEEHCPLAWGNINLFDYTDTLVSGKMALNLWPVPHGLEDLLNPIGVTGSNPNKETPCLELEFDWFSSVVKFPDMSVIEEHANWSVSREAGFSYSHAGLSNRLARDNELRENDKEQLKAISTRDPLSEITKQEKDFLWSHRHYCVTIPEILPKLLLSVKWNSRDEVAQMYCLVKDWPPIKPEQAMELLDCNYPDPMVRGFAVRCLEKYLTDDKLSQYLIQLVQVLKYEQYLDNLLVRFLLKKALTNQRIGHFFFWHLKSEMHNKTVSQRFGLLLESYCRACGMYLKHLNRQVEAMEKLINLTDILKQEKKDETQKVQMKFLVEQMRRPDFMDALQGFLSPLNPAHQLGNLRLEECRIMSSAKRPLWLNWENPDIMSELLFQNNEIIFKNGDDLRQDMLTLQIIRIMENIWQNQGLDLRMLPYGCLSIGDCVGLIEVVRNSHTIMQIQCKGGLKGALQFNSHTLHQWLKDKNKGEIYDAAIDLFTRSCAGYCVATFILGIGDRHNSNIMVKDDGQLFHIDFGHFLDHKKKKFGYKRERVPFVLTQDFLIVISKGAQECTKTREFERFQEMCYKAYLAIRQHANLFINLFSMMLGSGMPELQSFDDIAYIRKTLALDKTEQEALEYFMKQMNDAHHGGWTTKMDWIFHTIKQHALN
structure (smiles),measurement,setting,value
COC(=O)c1cc(OC)cc(Oc2ncccc2-c2ccncc2)c1,MEC,[1],0.02 µM
CNC(=O)c1cc(Oc2ncccc2-c2ccncc2)cc(OC(F)(F)F)c1,MEC,[1],0.16 µM
CNC(=O)c1cc(Oc2ncccc2-c2ccnc(C)c2)cc(OC(F)(F)F)c1,AUC/dose,[2],0.72 µM·h/mg/kg
same,Activity,[3],Active
same,inhibition,[4],inactive
same,MEC,[1],0.12 µM
same,Activity,[5],Active
same,Activity,[6],Active
same,Activity,[7],Active
same,Cmax,[8],14.4 µM
COc1cc(OC)cc(Oc2ncccc2-c2ccncn2)c1,MEC,[1],0.75 µM
COc1cc(NC(C)=O)cc(Oc2ncccc2-c2ccnc(OC)c2)c1,Activity,[3],Active
same,inhibition,[4],Active
same,MEC,[1],0.03 µM
same,Activity,[5],Active
same,inhibition,[9],< 68%
same,Activity,[6],Active
same,Activity,[7],Active
CNC(=O)c1cc(Oc2ncccc2-c2ccnc(OC)c2)cc(OC(F)(F)F)c1,inhibition,[10],inactive
same,AUC/dose,[2],0.35 µM·h/mg/kg
same,Activity,NCI-H23 [11],Active
same,Activity,[12],Active
same,inhibition,[13],Active
same,Activity,[14],inactive
same,inhibition,[15],inactive
same,inhibition,[4],Active
same,Activity,Mus musculus [16],Active
same,MEC,[1],0.02 µM
same,Activity,[17],Active
same,Activity,[18],inactive
same,Activity,Mus musculus [19],Active
same,Activity,[20],inactive
same,inhibition,[9],< 68%
same,inhibition,[21],Active
same,Activity,[22],Active
same,Activity,[23],Active
same,Activity,NCI-H23 [24],Active
same,Cmax,[8],6.9 µM
COC(=O)c1cc(OC)cc(Oc2ncccc2-c2ccnc(N)n2)c1,MEC,[1],0.03 µM
COC(=O)c1ccc(Oc2ncccc2-c2ccnc(N)n2)cc1,MEC,[1],> 20 µM
COc1ccc(Oc2ncccc2-c2ccnc(N)n2)cc1,MEC,[1],> 20 µM
COc1cc(OC)cc(Oc2ncccc2-c2ccnc(N)n2)c1,MEC,[1],0.37 µM
COC(=O)c1cccc(Oc2ncccc2-c2ccnc(N)n2)c1,MEC,[1],0.85 µM
COc1cc(OC)cc(Oc2ncccc2-c2cccnc2)c1,MEC,[1],0.91 µM
COc1cccc(Oc2ncccc2-c2ccnc(N)n2)c1,MEC,[1],1.5 µM
COc1cc(OC)cc(Oc2ncccc2-c2ccnc(OC)c2)c1,inhibition,[25],inactive
same,MEC,[1],0.07 µM
same,inhibition,[26],inactive
Nc1cccc(Oc2ncccc2-c2ccnc(N)n2)c1,MEC,[1],20 µM
COc1cc(Oc2ncccc2-c2ccncc2)cc(C(=O)N(C)C)c1,MEC,[1],2.08 µM
COc1cc(OC)cc(Oc2ncccc2-c2ccnc(C)c2)c1,inhibition,[25],inactive
same,MEC,[1],0.08 µM
same,inhibition,[26],inactive
COc1cc(NC(C)=O)cc(Oc2ncccc2-c2ccnc(C)c2)c1,Activity,[3],Active
same,inhibition,[4],inactive
same,MEC,[1],0.07 µM
same,Activity,[5],Active
same,Activity,[6],Active
same,Activity,[7],Active
COc1cc(Oc2ncccc2-c2ccncc2)cc(-c2nc(C)no2)c1,MEC,[1],0.42 µM
CNC(=O)c1cc(OC)cc(Oc2ncccc2-c2ccnc(C)c2)c1,MEC,[1],0.12 µM
CNC(=O)c1cc(OC)cc(Oc2ncccc2-c2ccnc(OC)c2)c1,Activity,[3],Active
same,inhibition,[4],inactive
same,MEC,[1],0.03 µM
same,Activity,[5],Active
same,Activity,[6],Active
same,Activity,[7],Active
COc1cc(OC)cc(Oc2ncccc2-c2ccncc2)c1,MEC,[1],0.14 µM
Nc1nccc(-c2cccnc2Oc2ccccc2)n1,MEC,[1],> 20 µM
CCN(CCCOc1ccc2c(Nc3cc(CC(=O)Nc4cccc(F)c4)[nH]n3)ncnc2c1)CCOP(=O)(O)O,inhibition,[27],100%
CNC(=O)c1cc(OC)cc(Oc2ncccc2-c2ccncc2)c1,MEC,[1],0.47 µM
COc1cc(OC)cc(Oc2ncccc2-c2cccc(N)n2)c1,MEC,[1],0.96 µM
COc1cc(NC(C)=O)cc(Oc2ncccc2-c2ccncc2)c1,inhibition,[28],Active
same,Activity,[3],Active
same,inhibition,[4],inactive
same,MEC,[1],0.11 µM
same,Activity,[5],Active
same,Activity,[6],Active
same,Activity,[7],Active
Nc1ccc(Oc2ncccc2-c2ccnc(N)n2)cc1,MEC,[1],5 µM
COc1cc(OC)cc(Oc2ncccc2-c2ccnc(C)n2)c1,MEC,[1],1.29 µM
COc1cc(OC)cc(Oc2ncccc2-c2ccccc2)c1,MEC,[1],2.08 µM
COc1cc(OC)cc(Oc2ncccc2-c2ccnc(N)c2)c1,MEC,[1],0.28 µM

# — ChEMBL document CHEMBL5385867, “2-Phenoxy-3, 4'-bipyridine derivatives inhibit AURKB-dependent mitotic processes by disrupting its localization” (Eur J Med Chem, 2023)
